Experimental data from patent US20040248887A1, “Inhibitors of cathepsin S” (IRM LLC, priority 2003, published 2004).

Target: Cathepsin S (Homo sapiens, UniProt P25774)
Assay: Cathepsin S inhibition, fluorogenic peptide substrate kinetic assay
Type: biochemical
Conditions: Table II; Cathepsin S inhibition constant, pH5.5; read-out: Ki Cat. S
From the text: “Inhibition constant”, Ki, is the dissociation constant of the enzyme-inhibitor complex, or the reciprocal of the binding affinity of the inhibitor to the enzyme. […] The inhibited rates are then fit by nonlinear regression to the following equation: [formula]
where vo is the initial rate of substrate processing in the absence of inhibitor, v; is the initial rate of substrate processing at a concentration [I] of inhibitor, Km is the steady state Michaelis constant (Fersht, A. Structure and Mechanism in Protein Science. New York, W.H. Freeman and Company, 1999), and [S] is the concentration of competitive substrate.
The assumption being made for the classical inhibition described above is that the free inhibitor concentration is equal to the total inhibitor concentration.
The inhibition constant, Ki, can be determined from the apparent inhibition constant, Ki^app, for competitive inhibitors by using the following relationship: [formula]
The optimal substrate for cathepsin S, acetyl-histidine-proline-valine-lysine-amino carbamoyl coumarin, was identified from screening a combinatorial library of fluorogenic peptide substrates (Harris, J. L., B. J. Backes, et al., Proc Natl Acad Sci USA 2000, 97(14), 7754-9). Kinetic measurements are performed in a total reaction volume of 30 μl in 384-well microtiter plates. […] The reactions are initiated by adding the substrate, acetyl-histidine-proline-valine-lysine-amino carbamoyl coumarin, to a final concentration of 50 μM. The rate of substrate hydrolysis is measured by monitoring the increase in fluorescence at an excitation wavelength of 380 nm and an emission wavelength of 450 nm that results from cleavage of the aniline bond in the substrate by the enzyme. The apparent inhibition constants for the compounds are determined from the enzyme progress curves (Kuzmic, P., K. C. Elrod, et al., Anal Biochem 2000, 286(1), 45-50) and are then used to calculate the inhibition constants for competitive inhibitors.

Sequence of Cathepsin S (P25774 115-331, species assumed): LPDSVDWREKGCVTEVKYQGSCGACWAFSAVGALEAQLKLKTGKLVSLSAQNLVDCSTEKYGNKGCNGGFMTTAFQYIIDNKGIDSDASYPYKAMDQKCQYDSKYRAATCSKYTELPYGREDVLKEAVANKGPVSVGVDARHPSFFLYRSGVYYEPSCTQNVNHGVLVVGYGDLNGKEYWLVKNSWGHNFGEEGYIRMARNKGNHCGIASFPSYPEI

SMILES	Ki [nM]
C[C@@H](CN1CC(C)(C)c2cc(F)ccc21)NC(=O)[C@H](CC1CCCCC1)NC(=O)[C@H]1CCCO1 [Compound 273, Tetrahydrofuran-2-(R)-carboxylic acid {2-cyclohexyl-1-(S)-[2-(5-fluoro-3,3-dimethyl-2,3-dihydro-indol-1-yl)-1-(S)-methyl-ethylcarbamoyl]-ethyl}-amide]	< 100
C[C@@H](CNc1ccc(S(N)(=O)=O)cc1)NC(=O)[C@H](CC1CCCCC1)NC(=O)c1ccc(-c2cccc(F)c2)o1 [Compound 138, 5-(3-Fluoro-phenyl)-furan-2-carboxylic acid {2-cyclohexyl-1-(S)-[1-(S)-methyl-2-(4-sulfamoyl-phenylamino)-ethylcarbamoyl]-ethyl}-amide]	< 1000
COc1ccc(NCC(C)NC(=O)C(CCC2CCCCC2)NC(=O)c2cc3ccccc3[nH]2)cc1 (mixture of isomers) [Compound 24]	< 1000
C[C@@H](CNc1ccc2c(c1)OCO2)NC(=O)[C@H](CC1CCCCC1)NC(=O)c1ccc(-c2cccc(F)c2)o1 [Compound 85, 5-(3-Fluoro-phenyl)-furan-2-carboxylic acid {1-(S)-[2-(benzo[1,3]dioxol-5-ylamino)-1-(S)-methyl-ethylcarbamoyl]-2-cyclohexyl-ethyl}-amide]	< 100
O=C(N[C@@H](CC1CCCCC1)C(=O)N[C@@H](COCc1ccccc1)CN1CCc2cc(F)ccc21)OCc1ccccc1 [Compound 169]	< 100
O=C(N[C@@H](CC1CCCCC1)C(=O)NCCN1CCc2cc(F)ccc21)C1CCN(C(=O)c2ccccc2)CC1 [Compound 5, 1-Benzoyl-piperidine-4-carboxylic acid (S)-{2-cyclohexyl-1-[2-(5-fluoro-2,3-dihydro-indol-1-yl)-ethylcarbamoyl]-ethyl}-amide]	< 1000
O=C(N[C@@H](CC1CCCCC1)C(=O)NCCN1CCc2cc(F)ccc21)C1CCN(c2ccc(Cl)nn2)CC1 [Compound 56, 1-(6-Chloro-pyridazin-3-yl)-piperidine-4-carboxylic acid (S)-{2-cyclohexyl-1-[2-(5-fluoro-2,3-dihydro-indol-1-yl)-ethylcarbamoyl]-ethyl}-amide]	< 1000
O=C(NCCN1CCc2cc(F)ccc21)[C@H](CC1CCCCC1)NS(=O)(=O)c1ccc(Oc2ccc(F)cc2)cc1 [Compound 236, (S)-3-Cyclohexyl-N-[2-(5-fluoro-2,3-dihydro-indol-1-yl)-ethyl]-2-[4-(4-fluoro-phenoxy)-benzenesulfonylamino]-propionamide]	< 1000
O=C(NCCN1CCc2cc(F)ccc21)[C@H](CC1CCCCC1)NS(=O)(=O)c1ccsc1 [Compound 248, (S)-3-Cyclohexyl-N-[2-(5-fluoro-2,3-dihydro-indol-1-yl)-ethyl]-2-(thiophene-3-sulfonylamino)-propionamide]	< 1000
COc1ccc(NC[C@H](C)NC(=O)[C@H](CC2CCCCC2)NC(=O)c2ccc(-c3ccc(F)cc3)o2)cc1 [Compound 105, 5-(4-Fluoro-phenyl)-furan-2-carboxylic acid {2-cyclohexyl-1-(S)-[2-(4-methoxy-phenylamino)-1-(S)-methyl-ethylcarbamoyl]-ethyl}-amide]	< 100
CC(=O)N1CCC(Oc2ccc(C(=O)N[C@@H](CC3CCCCC3)C(=O)NCCN3CCc4cc(F)ccc43)cc2)CC1 [Compound 69, 4-(1-Acetyl-piperidin-4-yloxy)-N-(S)-{2-cyclohexyl-1-[2-(5-fluoro-2,3-dihydro-indol-1-yl)-ethylcarbamoyl]-ethyl}-benzamide]	< 1000
Cc1cc(C(=O)N[C@@H](CC2CCCCC2)C(=O)NCCN2CCc3cc(F)ccc32)c(C(F)(F)F)o1 [Compound 78, 5-Methyl-2-trifluoromethyl-furan-3-carboxylic acid (S)-{2-cyclohexyl-1-[2-(5-fluoro-2,3-dihydro-indol-1-yl)-ethylcarbamoyl]-ethyl}-amide]	< 100
C[C@@H](CN1CC(C)(C)c2cc(F)ccc21)NC(=O)[C@H](CC1CCCCC1)NC(=O)O[C@H]1CCOC1 [Compound 217, (S,S)-{2-Cyclohexyl-1-[2-(5-fluoro-3,3-dimethyl-2,3-dihydro-indol-1-yl)-1-methyl-ethylcarbamoyl]-ethyl}-carbamic acid (S)-tetrahydro-furan-3-yl ester]	< 100
C[C@@H](CNc1ccc(SC(F)(F)F)cc1)NC(=O)[C@H](CC1CCCCC1)NC(=O)c1ccc(-c2cccc(F)c2)o1 [Compound 119, 5-(3-Fluoro-phenyl)-furan-2-carboxylic acid {2-cyclohexyl-1-(S)-[1-(S)-methyl-2-(4-trifluoromethylsulfanyl-phenylamino)-ethylcarbamoyl]-ethyl}-amide]	< 100
C[C@@H](CNc1ccc(OC(F)(F)F)cc1)NC(=O)[C@H](CC1CCCCC1)NC(=O)c1ccc(-c2ccc[n+]([O-])c2)o1 [Compound 144, 5-(1-Oxy-pyridin-3-yl)-furan-2-carboxylic acid {2-cyclohexyl-1-(S)-[1-(S)-methyl-2-(4-trifluoromethoxy-phenylamino)-ethylcarbamoyl]-ethyl}-amide]	< 100
Cc1cccc(C(=O)N[C@@H](CC(C)(C)C)C(=O)NCCN2CCc3cc(F)ccc32)c1 [Compound 203, N-((S)-1-(2-(5-fluoroindolin-1-yl)ethylcarbamoyl)-3,3-dimethylbutyl)-3-methylbenzamide]	< 100
O=C(N[C@@H](CC1CCCC1)C(=O)NCCN1CCc2cc(F)ccc21)c1ccc(-c2cccc(C(F)(F)F)c2)o1 [Compound 200, N-((S)-1-(2-(5-fluoroindolin-1-yl)ethylcarbamoyl)-2-cyclopentylethyl)-5-(3-(trifluoromethyl)phenyl)furan-2-carboxamide]	< 100
COc1cccc(C(=O)N[C@@H](CCC2CCCCC2)C(=O)NCCN2CCc3c(OC)cccc32)c1 [Compound 15, (S)-N-{3-Cyclohexyl-1-[2-(4-methoxy-2,3-dihydro-indol-1-yl)-ethylcarbamoyl]-propyl}-3-methoxy-benzamide]	< 10000
C[C@@H](CNc1ccc(C(=O)N(C)C)cc1)NC(=O)[C@H](CC1CCCCC1)NC(=O)c1ccc(-c2cccc(F)c2)o1 [Compound 122, 5-(3-Fluoro-phenyl)-furan-2-carboxylic acid {2-cyclohexyl-1-(S)-[2-(4-dimethylcarbamoyl-phenylamino)-1-(S)-methyl-ethylcarbamoyl]-ethyl}-amide]	< 100
O=C(NCCN1CCc2cc(F)ccc21)[C@H](CC1CCCCC1)NS(=O)(=O)c1scc(Br)c1Cl [Compound 224, (S)-2-(4-Bromo-3-chloro-thiophene-2-sulfonylamino)-3-cyclohexyl-N-[2-(5-fluoro-2,3-dihydro-indol-1-yl)-ethyl]-propionamide]	< 1000
C[C@@H](CNc1ccc(F)cc1)NC(=O)[C@H](CC1CCCCC1)NC(=O)c1ccc(-c2cccc(F)c2)o1 [Compound 126, 5-(3-Fluoro-phenyl)-furan-2-carboxylic acid {2-cyclohexyl-1-(S)-[2-(4-fluoro-phenylamino)-1-(S)-methyl-ethylcarbamoyl]-ethyl}-amide]	< 100
O=C(N[C@@H](CC1CCCCC1)C(=O)NCCN1CCc2cc(F)ccc21)c1ccc(Oc2ccccc2)cc1 [Compound 4, N-(S)-{2-cyclohexyl-1-[2-(5-fluoro-2,3-dihydro-indol-1-yl)-ethylcarbamoyl]-ethyl}-4-phenoxy-benzamide]	< 100
O=C(Nc1ccc(-c2ccccc2)s1)N[C@@H](CC1CCCCC1)C(=O)NCCN1CCc2cc(F)ccc21 [Compound 219, (S)-3-Cyclohexyl-N-[2-(5-fluoro-2,3-dihydro-indol-1-yl)-ethyl]-2-[3-(5-phenyl-thiophen-2-yl)-ureido]-propionamide]	< 10000
C[C@@H](CNc1cccc(C(=O)N(C)C)c1)NC(=O)[C@H](CC1CCCCC1)NC(=O)c1ccc(-c2cccc(F)c2)o1 [Compound 120, 5-(3-Fluoro-phenyl)-furan-2-carboxylic acid {2-cyclohexyl-1-(S)-[2-(3-dimethylcarbamoyl-phenylamino)-1-(S)-methyl-ethylcarbamoyl]-ethyl}-amide]	< 100
COc1ccc(NC[C@@H](C)NC(=O)[C@H](CCC2CCCCC2)NC(=O)c2cc3ccccc3[nH]2)cc1 [Compound 25, 1H-Indole-2-carboxylic acid {3-cyclohexyl-(1S)-[2-(4-methoxy-phenylamino)-(1R)-methyl-ethylcarbamoyl]-propyl}-amide]	< 10000
O=C(NCCN1CCc2cc(F)ccc21)[C@H](CC1CCCCC1)NS(=O)(=O)c1ccc(C(F)(F)F)cc1 [Compound 229, (S)-3-Cyclohexyl-N-[2-(5-fluoro-2,3-dihydro-indol-1-yl)-ethyl]-2-(4-trifluoromethyl-benzenesulfonylamino)-propionamide]	< 1000
C[C@@H](CNc1cccc(S(C)(=O)=O)c1)NC(=O)[C@H](CC1CCCCC1)NC(=O)c1ccc(-c2ccc(F)cc2)o1 [Compound 106, 5-(4-Fluoro-phenyl)-furan-2-carboxylic acid {2-cyclohexyl-1-(S)-[2-(3-methanesulfonyl-phenylamino)-1-(S)-methyl-ethylcarbamoyl]-ethyl}-amide]	< 100
